The values that follow come from patent US20240252477A1, “NLRP3 INFLAMMASOME-INHIBITING COMPOUNDS AND THE USE THEREOF” (UNIVERSITA' DEGLI STUDI DI TORINO (60%), priority 2021, published 2024).

In one data set the target is T1, IL-1beta (Homo sapiens, UniProt P01584).
T1 construct: host or cells: patients (clinical trial)
Conditions: cited from earlier work.

A further data set has as its target T2, NLRP3 inflammasome (Homo sapiens, UniProt Q96P20).
T2 construct: The THP-1 cells were differentiated into macrophages by treating them with PMA 50 nM; endogenous in cells; host or cells: THP-1 (human monocytic leukaemia line), PMA-differentiated, primed with LPS, triggered with ATP
The data set is described as follows: NLRP3-dependent pyroptosis (LDH release) in PMA-differentiated THP-1 cells stimulated with LPS/ATP. It is filed as cell-based. Conditions: compounds at 10 μM for 1 hour, differentiated THP-1, LPS 10 μg/mL 4 hours, ATP 1.5 hours; for inhibition at 10 µM: read-out: Pyroptosis inhibition (% ± SEM). As for the experimental part:
THP-1 cells, a monocytic human cell line derived from the peripheral blood of a patient suffering from acute monocytic leukaemia (www.atcc.org), were cultured in RPMI 1640 medium (Aurogene, Rome, Italy), with the addition of foetal bovine serum (10%, Aurogene), L-glutamine (2 mM, Aurogene), penicillin (100 IU/ml, Aurogene) and streptomycin ([…], Aurogene). The medium was changed every 2-3 days, and the cells were maintained in an incubator at 37° C., with 5% CO2, and with suitable humidity.
The cells were seeded in 48-well plates (90.000 cells/well), and differentiated with phorbol 12-myristate 13-acetate (PMA—50 nM, 24 hours; Sigma-Aldrich). On the next day, the differentiated THP-1s were washed twice with the balanced saline solution phosphate-buffered saline (PBS), and stimulated with lipopolysaccharide (LPS) (10 μg/mL, 4 hours; Sigma-Aldrich), prepared in serum-free medium. After 4 hours the cells were incubated with the compounds at the concentration of 10 μM for 1 hour, operating in triplicate; INF176 and INF177 were tested at three different concentrations: […]. Finally, the cells were stimulated with ATP 5 mm for 1.5 hours. The supernatants were then harvested for the subsequent analyses.
LDH release into the supernatant obtained as described above was quantified using the CytoTox 96 nonradioactive cytotoxicity assay (Promega Corporation, Madison, […], USA), a colorimetric assay wherein LDH activity is measured with an NADH-dependent enzymatic reaction:
Briefly, an equal volume of CytoTox Reagent was added to the supernatant and, after 30 minutes' incubation, the reaction was stopped by adding the stop solution. The formazan concentration was determined by measuring absorbance, using a microplate reader (Victor X4—EnSight, PerkinElmer, Waltham, MA, USA), at λ=490 nm. Cell death was expressed according to the manufacturer's instructions.
The compound INF176 was tested to measure its ability to inhibit NLRP3-dependent cell pyroptosis in human macrophages, using the experimental protocol previously published [Cocco et al. 2017].
The THP-1 cells were differentiated into macrophages by treating them with PMA 50 nM (24 hours) and then with LPS (10 μg/mL) for 4 hours. The cells were treated with the compound (10 μM) for 1 hour. Pyroptosis was induced by treatment with ATP 5 mm. After 90 minutes, cell death was evaluated by measuring the LDH level in the cell supernatant using the CytoTox 96 Non-Radioactive Cytotoxicity Assay (Promega Corporation, Madison, […], USA).
Background: LDH in the medium is a marker of cell lysis.

Data set [1] in a line: Stability in PBS pH 7.4 with excess glutathione or cysteamine (HPLC). Format: physicochemical. Conditions: 100 μM, PBS pH 7.4, 37° C. Here is the method:
The compound INF177 was incubated at the concentration of 100 μM in PBS pH 7.4 (0.1% DMSO) at 37° C., in the absence and in the presence of excess glutathione or cysteamine (10×). The reaction mixture underwent repeated HPLC analyses over 24 hours.
The HPLC analysis was conducted with an HP 1200 chromatography system (Agilent Technologies, Palo Alto, CA, USA) consisting of an integrated quaternary pump (model G1311A), degasser (model G1322A), UV MWD detector (model G1365D) and fluorescence detector (model G1321A). The data were processed with the HP ChemStation system program (Agilent Technologies).
The analyses were conducted using the ZORBAX SB-Phenyl column (250×4.6 mm, 5 μm; Agilent) as stationary phase and CH3CN/H2O (+0.1% HCOOH), 70/30 (v/v), flow rate=1.0 mL/min, as mobile phase, injecting 20 μL of sample (Rheodyne, Cotati, CA); the chromatograms were acquired at the wavelengths of 234 and 250 nm.

The next data set is described as follows: Cytotoxicity (MTT assay). It is filed as cell-based, human. Conditions: human; THP-1 cells, 72 hours' incubation. As for the experimental part: (§1) The THP-1 cells were seeded in a 96-well plate (15.000 cells/well) and incubated with the test compounds at four different concentrations (0.1, 1, 10 and 100 μM), operating in triplicate. The cells were placed in an incubator at 37° C., with 5% CO2, and cell viability was measured after 72 hours' incubation, using the MTT assay. This is a colorimetric assay, based on conversion of water-soluble 3-(4,5-dimethylthiazol-2-yl)-2,5-diphenyltetrazolium bromide (MTT; Sigma-Aldrich) to a violet-coloured insoluble formazan, by the mitochondrial dehydrogenase present in the live cells. The formazan is solubilised in acidified isopropanol, and the concentration is determined by measuring absorbance with a microplate reader (Victor X4—Ensight, PerkinElmer) at λ=570 nm. Viability was expressed as a percentage of the viability of the control cells, which were either untreated or treated with the carrier. The IC50 was calculated with the Graph Pad Prism software.

A further data set concerns THP-1 cells. The data set is described as follows: Cytotoxicity (MTT assay). It is filed as cell-based, human. Here is the method: as §1
On the technique in general: Tetrazolium assays rely on reduction of a dye to a coloured formazan, in cell work by metabolically active cells.

T2 sequence (Q96P20 whole entry): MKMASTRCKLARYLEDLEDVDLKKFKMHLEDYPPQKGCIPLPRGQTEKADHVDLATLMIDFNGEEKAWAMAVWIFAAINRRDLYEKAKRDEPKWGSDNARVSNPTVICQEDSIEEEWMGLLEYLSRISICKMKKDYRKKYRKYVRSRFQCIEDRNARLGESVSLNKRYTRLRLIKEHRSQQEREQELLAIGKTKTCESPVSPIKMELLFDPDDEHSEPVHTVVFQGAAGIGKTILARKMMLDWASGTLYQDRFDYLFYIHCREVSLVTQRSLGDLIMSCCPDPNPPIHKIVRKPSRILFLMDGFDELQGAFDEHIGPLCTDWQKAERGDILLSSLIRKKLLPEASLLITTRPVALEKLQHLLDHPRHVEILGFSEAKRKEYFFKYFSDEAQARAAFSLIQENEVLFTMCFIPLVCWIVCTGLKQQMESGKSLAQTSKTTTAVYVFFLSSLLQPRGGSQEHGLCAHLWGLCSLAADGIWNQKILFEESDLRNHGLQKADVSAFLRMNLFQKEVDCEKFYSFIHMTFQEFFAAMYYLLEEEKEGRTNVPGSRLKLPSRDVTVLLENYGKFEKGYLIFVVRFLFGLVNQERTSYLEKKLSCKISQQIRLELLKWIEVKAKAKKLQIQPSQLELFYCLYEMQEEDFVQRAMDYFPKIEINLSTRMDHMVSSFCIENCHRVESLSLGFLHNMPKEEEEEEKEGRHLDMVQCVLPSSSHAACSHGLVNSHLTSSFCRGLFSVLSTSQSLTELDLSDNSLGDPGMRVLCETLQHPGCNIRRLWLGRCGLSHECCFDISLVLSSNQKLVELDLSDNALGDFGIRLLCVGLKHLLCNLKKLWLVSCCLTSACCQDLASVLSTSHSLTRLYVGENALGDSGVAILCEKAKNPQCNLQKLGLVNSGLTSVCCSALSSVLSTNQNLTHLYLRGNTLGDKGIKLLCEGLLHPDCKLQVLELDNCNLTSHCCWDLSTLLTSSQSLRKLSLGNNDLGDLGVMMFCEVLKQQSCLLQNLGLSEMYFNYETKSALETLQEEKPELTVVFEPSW

As for canakinumab, the “reduction in lung cancer deaths” value with IL-1beta (after treatment with canakinumab) is on record as 77%. The “change in mortality due to cardiovascular events” value with IL-1beta (patients at cardiovascular risk) is reported as −31%.

By inhibition is commonly meant how much of the control response was suppressed. As a reminder, the IC50 is the concentration needed to halve the response being measured. High values mean weaker potency, low ones greater potency. On to `O=C(O)C1CCCN(C(=O)/C(=C/c2ccccc2Cl)CSc2ccccc2)C1` (centres unmarked) [INF177, (Z)-1-(3-(2-chlorophenyl)-2-((phenylthio)methyl)acryloyl)piperidine-3-carboxylic acid], for which the inhibition at 10 µM at NLRP3 inflammasome came out at 20.1 ± 9.8%. In data set [1] (10× excess thiol, over 24 hours), the “reactivity towards glutathione or cysteamine” value is recorded as “no appreciable reactivity was observed”. Moreover, the “% compound remaining” value in data set [1] (cysteamine 10×, after 2.5 hours) is greater than 98%; in data set [1] (glutathione 10×, after 4 hours), greater than 98%; in data set [1] (glutathione or cysteamine 10×, 24 hours), no less than 96%. The same compound had an IC50 at 72 h in the data set “Cytotoxicity (MTT assay)” greater than 100 µM.

Consider `CCOC(=O)C(CSCC(NC(=O)OC(C)(C)C)C(=O)OC)Cc1ccccc1Cl` (centres unmarked) [INF55, ethyl 3-((2-((tert-butoxycarbonyl)amino)-3-methoxy-3-oxopropyl)thio)-2-(2-chlorobenzyl)propanoate], for which, at NLRP3 inflammasome, the inhibition at 10 µM is less than 10%. The 50% inhibitory concentration (IC50) at 72 h in “Cytotoxicity (MTT assay)” is greater than 100 µM.

With `CCOC(=O)C(Cc1ccccc1Cl)CN1CCCC1` (centres unmarked) [INF61, ethyl 2-(2-chlorobenzyl)-3-(pyrrolidine-1-yl)propanoate], the inhibition at 10 µM at NLRP3 inflammasome came to 41.7 ± 5.2%. The compound also yielded an IC50 at 72 h in the data set “Cytotoxicity (MTT assay)” greater than 100 µM.

As to `CCOC(=O)C(CSc1ccccc1)Cc1ccccc1Cl` (centres unmarked) [INF43, ethyl 2-(2-chlorobenzyl)-3-(phenylthio)propanoate], the inhibition at 10 µM on NLRP3 inflammasome amounted to 51 ± 5.6%. The half-maximal inhibitory concentration (IC50) at 72 h in the data set “Cytotoxicity (MTT assay)” was greater than 100 µM.

Take `CCOC(=O)C(Cc1ccccc1Cl)CS(=O)(=O)c1ccccc1` (centres unmarked) [INF49, ethyl 2-(2-chlorobenzyl)-3-(phenylsulphonyl)-propanoate]: the inhibition at 10 µM at NLRP3 inflammasome was 50.6 ± 5.8%. Besides, in the data set “Cytotoxicity (MTT assay)”, the IC50 at 72 h was greater than 100 µM.

In the case of `O=C(O)C1CCN(C(=O)/C(=C/c2ccccc2Cl)CSc2ccccc2)CC1` [INF187, (Z)-1-(3-(2-chlorophenyl)-2-((phenylthio)methyl)acryloyl)piperidine-4-carboxylic acid], the inhibition at 10 µM at NLRP3 inflammasome is less than 10%. This compound had a half-inhibitory concentration (IC50) at 72 h in “Cytotoxicity (MTT assay)” greater than 100 µM.

As to `CCOC(=O)C1CCN(C(=O)C(CSC2CCCCC2)Cc2ccccc2Cl)CC1` (centres unmarked) [INF193, ethyl 1-(2-(2-chlorobenzyl)-3-(cyclohexylthio)propanoyl)piperidine-4-carboxylate], on NLRP3 inflammasome, the inhibition at 10 µM was less than 10%. This compound also displayed an IC50 at 72 h in the data set “Cytotoxicity (MTT assay)” of 77.5 ± 7.3 µM.

Take `NS(=O)(=O)c1ccc(CCNC(=O)/C(=C/c2ccccc2Cl)CSc2ccccc2)cc1` [INF220, (Z)-3-(2-chlorophenyl)-2-((phenylthio)methyl)-N-(4-sulphamoylphenethyl)acrylamide]: the inhibition at 10 µM at NLRP3 inflammasome is 73.9 ± 13.9%. In addition, the IC50 at 72 h in “Cytotoxicity (MTT assay)” was greater than 62.5 µM.

On to “(Z)-3-(2-chlorophenyl)-2-((phenylthio)methyl)acrylic acid [INF80]”, for which, at NLRP3 inflammasome, the “Pyroptosis inhibition (% ± SEM)” value is recorded as less than 10%. In the data set on THP-1 cells, this compound displayed a half-inhibitory concentration (IC50) of 92.8 ± 1.6 µM.

For orientation: melting point means the temperature of the solid-liquid transition. `NC(=O)C1CCCN(C(=O)/C(=C/c2ccccc2Cl)CSc2ccccc2)C1` (centres unmarked) [INF219, (Z)-1-(3-(2-chlorophenyl)-2-((phenylthio)methyl)acryloyl)piperidine-3-carboxamide] returned a melting point of 60.5 to 61.4 °C. Moreover, the inhibition at 10 µM on NLRP3 inflammasome came out at 13 ± 8.2%. Further, in “Cytotoxicity (MTT assay)”, the IC50 at 72 h was greater than 100 µM.

Consider `CCOC(=O)C(CSC1CCCCC1)Cc1ccccc1Cl` (centres unmarked) [INF110, ethyl 2-(2-chlorobenzyl)-3-(cyclohexylthio)propanoate], for which the inhibition at 10 µM on NLRP3 inflammasome is less than 10%. In “Cytotoxicity (MTT assay)”, this compound returned a half-inhibitory concentration (IC50) at 72 h of 66 ± 1.4 µM.
